Reference: PMC12621189, “Optimization of Selective and CNS Penetrant Alkyne-Based TREK Inhibitors: The Discovery and Characterization of ONO-9517601 (VU6022856) and ONO-7927846 (VU6024391)” (Journal of Medicinal Chemistry, 2025)

Tests used:
mouse TREK-1 = mouse TREK-1 (Mus musculus, UniProt P97438); assay: mouse TREK-1 thallium flux; assay type: cell-based; conditions: read-out: TREK-1 IC50 (mouse, Tl+)
human TREK-2 = biological target: T1, human TREK-2 (Homo sapiens, UniProt P57789); assay: hTREK-2 manual patch clamp assay; assay type: cell-based; conditions: human TREK-2, manual patch clamp; read-out: TREK-2 IC50 (human, MPC)
T1 construct: expressed in transfected cells
T1 sequence (P57789 whole entry): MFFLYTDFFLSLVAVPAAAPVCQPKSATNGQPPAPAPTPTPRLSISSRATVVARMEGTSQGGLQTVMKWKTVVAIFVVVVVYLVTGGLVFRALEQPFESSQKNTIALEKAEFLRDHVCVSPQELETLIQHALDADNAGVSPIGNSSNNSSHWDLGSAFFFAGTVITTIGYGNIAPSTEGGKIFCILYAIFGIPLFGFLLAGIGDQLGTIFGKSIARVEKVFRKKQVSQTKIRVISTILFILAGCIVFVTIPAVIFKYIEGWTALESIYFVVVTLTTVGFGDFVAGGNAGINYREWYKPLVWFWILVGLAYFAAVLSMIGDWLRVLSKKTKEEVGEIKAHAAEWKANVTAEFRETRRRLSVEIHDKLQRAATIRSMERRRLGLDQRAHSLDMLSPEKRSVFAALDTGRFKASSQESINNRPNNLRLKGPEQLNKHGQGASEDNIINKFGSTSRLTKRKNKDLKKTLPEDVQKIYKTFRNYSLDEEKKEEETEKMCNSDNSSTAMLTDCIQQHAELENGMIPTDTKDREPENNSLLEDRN
Procedure: compounds were dissolved into the bathing solution. The effects of test compound on the currents were calculated at 0 mV using the following equations:
% inhibition = (1-post current/pre current) x 100
% inhibition vs compound concentrations were plotted in GraphPad Prism and calculated IC50. […]
hTREK-2 patch clamp assay
HEK293 cells stably expressing human TREK-2 are plated on glass coverslips, and voltage clamped in the whole-cell configuration of the patch clamp technique. Cells are voltage clamped at a holding potential of -80 mV and the stepped to 0 mV for 500 msec. The voltage is subsequently ramped from -120mV to +80 mV over a 500 msec duration. This step-ramp protocol is repeated every 10 sec. The bathing solution contained the following: 135 mM NaCl, 5 mM KCl, 2 mM CaCl2, 1 mM MgCl2, 5 mM D-Glucose, 10 mM HEPES, 10 mM sucrose (adjusted to pH 7.4 with NaOH, 300 mosmol/kg H2O). The pipette solution contained the following: 135 mM KCl, 2 mM MgCl2, 1 mM EGTA, 10 mM HEPES, 2 mM Na2ATP (adjusted to pH 7.35 with KOH, 285 mosmol/kg H2O). Test compounds are dissolved into the bathing solution. Experiments are terminated with the addition of the control compound (tert-butyl (3-((4-(benzyloxy)-2-methylphenyl)carbamoyl)-4-chlorophenyl)carbamate) so that maximal inhibition can be determined. The effects of test compound on the currents can be calculated at 0 mV using the […]

[1] = Plasma protein binding, human (equilibrium dialysis); assay type: in vitro ADME; conditions: pH 7.4, read-out: PPB human (converted)
Procedure: Plasma protein binding and Brain homogenate binding: Determination of fraction unbound (f u) in plasma was conducted in vitro via equilibrium dialysis using HTDialysis (HTD) membrane plates. The top half of the plate was filled with 100 uL of Dubelco’s Phosphate Buffered Saline, pH 7.4 (DPBS). Compounds were diluted into plasma from each species (5 µM final concentration), which was aliquoted in triplicate to the ‘bottom half’ of the prepared HTD plate wells. The HTD plate was sealed and incubated for 6 hours at 37 °C. Following incubation, each well (both top and bottom halves) were transferred (20 µL) to the corresponding wells of a 96-shallow-well (V-bottom) plate. The daughter plates were then matrix-matched (DPBS side wells received equal volume of plasma, and plasma side wells received equal volume of DPBS), and extraction solution (120 µL; acetonitrile containing 50 nM carbamazepine as IS) was added to all wells of both daughter plates to precipitate protein and extract test article. The plates were then sealed and centrifuged (3500 rcf) for 10 minutes at ambient temperature. Supernatant (60 µL) from each well of the daughter plates was then transferred to the corresponding wells of new daughter plates (96-shallow-well, V bottom) containing water (Milli-Q, 60 µL/well), and the plates were sealed in preparation for LC-MS/MS analysis (see LC-MS/MS analysis method below).
The unbound fraction (f u) was calculated following the equation below, and mean values for each species were calculated from 3 replicates. […]
Fraction unbound for both plasma and brain samples was determined using Equation 4.
Equation 4 Determination of fraction unbound in plasma. […]

CYP 1A2 = CYP 1A2 (Homo sapiens, UniProt P05177); assay: CYP450 inhibition 1A2; assay type: in vitro ADME
CYP 1A2, sequence (P05177 whole entry): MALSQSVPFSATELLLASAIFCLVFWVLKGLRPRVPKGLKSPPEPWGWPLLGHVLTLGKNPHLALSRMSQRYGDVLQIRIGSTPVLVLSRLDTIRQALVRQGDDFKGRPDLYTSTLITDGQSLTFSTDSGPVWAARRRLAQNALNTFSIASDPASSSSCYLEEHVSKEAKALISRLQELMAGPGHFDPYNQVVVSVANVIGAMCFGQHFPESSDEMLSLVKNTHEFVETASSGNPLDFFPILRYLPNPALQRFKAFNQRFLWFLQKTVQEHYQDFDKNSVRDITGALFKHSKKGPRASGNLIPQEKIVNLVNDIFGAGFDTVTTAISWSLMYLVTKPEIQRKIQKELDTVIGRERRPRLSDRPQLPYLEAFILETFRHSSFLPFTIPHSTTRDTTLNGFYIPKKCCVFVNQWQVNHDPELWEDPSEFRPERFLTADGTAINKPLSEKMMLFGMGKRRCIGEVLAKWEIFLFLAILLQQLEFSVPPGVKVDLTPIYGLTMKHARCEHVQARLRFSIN

CYP 3A4 = CYP 3A4 (Homo sapiens, UniProt P08684); assay: CYP450 inhibition 3A4; assay type: in vitro ADME
CYP 3A4, sequence (P08684 whole entry): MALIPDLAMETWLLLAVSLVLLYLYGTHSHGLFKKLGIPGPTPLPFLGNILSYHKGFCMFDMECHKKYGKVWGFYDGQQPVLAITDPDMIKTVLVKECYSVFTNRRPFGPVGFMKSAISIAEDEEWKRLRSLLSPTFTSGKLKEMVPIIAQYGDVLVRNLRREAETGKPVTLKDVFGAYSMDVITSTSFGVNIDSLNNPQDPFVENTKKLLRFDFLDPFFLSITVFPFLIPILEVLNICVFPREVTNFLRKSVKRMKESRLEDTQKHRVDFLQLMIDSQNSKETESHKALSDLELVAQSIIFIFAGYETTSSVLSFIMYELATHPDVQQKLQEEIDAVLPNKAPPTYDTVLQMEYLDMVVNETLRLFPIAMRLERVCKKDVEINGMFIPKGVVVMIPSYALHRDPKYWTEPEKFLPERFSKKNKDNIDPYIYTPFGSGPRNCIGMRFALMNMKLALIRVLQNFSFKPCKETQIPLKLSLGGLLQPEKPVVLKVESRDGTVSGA

[2] = system: 5-strains, with and without S9; assay: AMES assay (5-strains, with and without S9); assay type: cell-based
CACO-2 efflux ratio = assay type: in vitro ADME; conditions: human, pH 7.4, efflux ratio, read-out: CACO-2 (ER)
[3] = system: 68 GPCRs, ion channels, and transporters; assay: Eurofins Lead Profiling Panel, radioligand binding displacement; conditions: 68 targets, 10 μM
adenosine A3 = biological target: T2, adenosine A3 (Homo sapiens, UniProt P0DMS8); assay: Radioligand binding, adenosine A3; conditions: for IC50: follow-up binding; for inhibition at 10 µM: radioligand binding displacement
T2 construct: purchased Eurofins
T2 sequence (P0DMS8 1-318): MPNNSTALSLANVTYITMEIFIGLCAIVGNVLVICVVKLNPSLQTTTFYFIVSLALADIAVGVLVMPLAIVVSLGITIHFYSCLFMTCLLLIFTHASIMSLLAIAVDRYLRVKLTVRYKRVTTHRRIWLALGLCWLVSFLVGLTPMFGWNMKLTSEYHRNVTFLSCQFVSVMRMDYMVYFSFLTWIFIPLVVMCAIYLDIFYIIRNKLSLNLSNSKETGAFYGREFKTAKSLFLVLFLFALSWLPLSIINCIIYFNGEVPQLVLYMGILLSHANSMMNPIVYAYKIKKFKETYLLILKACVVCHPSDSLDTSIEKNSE

Cav1.2 = Cav1.2 (Homo sapiens, UniProt Q13936); assay: MPC ion channel panel, Cav1.2; assay type: cell-based
HCN4 = HCN4 (Homo sapiens, UniProt Q9Y3Q4); assay: MPC ion channel panel, HCN4; assay type: cell-based
HCN4, sequence (Q9Y3Q4 whole entry): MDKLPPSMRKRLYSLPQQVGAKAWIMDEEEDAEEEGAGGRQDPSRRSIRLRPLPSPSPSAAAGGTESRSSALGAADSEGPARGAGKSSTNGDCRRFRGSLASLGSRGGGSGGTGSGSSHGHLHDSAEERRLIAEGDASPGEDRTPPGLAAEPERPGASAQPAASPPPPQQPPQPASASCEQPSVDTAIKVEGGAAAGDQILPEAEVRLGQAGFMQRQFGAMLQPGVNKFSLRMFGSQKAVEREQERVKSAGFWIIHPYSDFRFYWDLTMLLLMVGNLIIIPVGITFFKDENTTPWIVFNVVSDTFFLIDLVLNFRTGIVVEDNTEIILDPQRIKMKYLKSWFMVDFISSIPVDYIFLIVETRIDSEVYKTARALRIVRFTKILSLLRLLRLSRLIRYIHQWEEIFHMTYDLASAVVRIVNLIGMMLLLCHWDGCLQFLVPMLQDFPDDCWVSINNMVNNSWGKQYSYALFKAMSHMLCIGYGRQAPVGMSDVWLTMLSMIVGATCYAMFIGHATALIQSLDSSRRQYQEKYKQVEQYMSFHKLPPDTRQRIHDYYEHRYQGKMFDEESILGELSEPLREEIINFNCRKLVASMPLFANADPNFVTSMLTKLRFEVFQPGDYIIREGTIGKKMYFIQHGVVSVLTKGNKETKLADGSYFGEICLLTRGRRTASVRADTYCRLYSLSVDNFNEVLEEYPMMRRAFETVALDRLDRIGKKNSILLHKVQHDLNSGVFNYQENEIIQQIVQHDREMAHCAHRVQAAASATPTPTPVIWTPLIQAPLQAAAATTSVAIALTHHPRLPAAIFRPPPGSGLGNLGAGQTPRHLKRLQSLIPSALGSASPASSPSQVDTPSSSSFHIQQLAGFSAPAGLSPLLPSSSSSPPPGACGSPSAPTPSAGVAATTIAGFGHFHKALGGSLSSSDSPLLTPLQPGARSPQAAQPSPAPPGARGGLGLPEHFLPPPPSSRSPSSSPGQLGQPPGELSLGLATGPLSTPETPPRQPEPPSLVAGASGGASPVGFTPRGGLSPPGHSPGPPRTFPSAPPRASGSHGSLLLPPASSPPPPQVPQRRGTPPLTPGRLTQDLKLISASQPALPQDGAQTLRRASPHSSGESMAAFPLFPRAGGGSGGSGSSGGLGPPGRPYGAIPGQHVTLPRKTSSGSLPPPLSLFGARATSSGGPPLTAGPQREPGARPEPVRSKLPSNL

Kir2.1 = Kir2.1 (Homo sapiens, UniProt P63252); assay: MPC ion channel panel, Kir2.1; assay type: cell-based
Kir2.1, sequence (P63252 whole entry): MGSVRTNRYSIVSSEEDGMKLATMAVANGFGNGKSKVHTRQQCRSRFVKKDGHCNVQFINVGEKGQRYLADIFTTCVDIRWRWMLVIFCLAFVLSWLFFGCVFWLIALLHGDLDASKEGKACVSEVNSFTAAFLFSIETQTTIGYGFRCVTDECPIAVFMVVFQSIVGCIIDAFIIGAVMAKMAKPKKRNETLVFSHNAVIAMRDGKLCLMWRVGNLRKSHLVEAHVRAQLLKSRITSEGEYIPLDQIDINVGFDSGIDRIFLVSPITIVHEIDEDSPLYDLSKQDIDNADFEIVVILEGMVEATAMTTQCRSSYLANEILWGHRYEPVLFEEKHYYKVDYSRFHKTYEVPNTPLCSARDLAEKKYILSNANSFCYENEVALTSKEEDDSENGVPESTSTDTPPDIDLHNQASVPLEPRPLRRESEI

Kv1.5 = Kv1.5 (Homo sapiens, UniProt P22460); assay: MPC ion channel panel, Kv1.5; assay type: cell-based
Kir2.2 = Kir2.2 (Homo sapiens, UniProt Q14500); assay: MPC ion channel panel, Kir2.2; assay type: cell-based
Kir2.2, sequence (Q14500 whole entry): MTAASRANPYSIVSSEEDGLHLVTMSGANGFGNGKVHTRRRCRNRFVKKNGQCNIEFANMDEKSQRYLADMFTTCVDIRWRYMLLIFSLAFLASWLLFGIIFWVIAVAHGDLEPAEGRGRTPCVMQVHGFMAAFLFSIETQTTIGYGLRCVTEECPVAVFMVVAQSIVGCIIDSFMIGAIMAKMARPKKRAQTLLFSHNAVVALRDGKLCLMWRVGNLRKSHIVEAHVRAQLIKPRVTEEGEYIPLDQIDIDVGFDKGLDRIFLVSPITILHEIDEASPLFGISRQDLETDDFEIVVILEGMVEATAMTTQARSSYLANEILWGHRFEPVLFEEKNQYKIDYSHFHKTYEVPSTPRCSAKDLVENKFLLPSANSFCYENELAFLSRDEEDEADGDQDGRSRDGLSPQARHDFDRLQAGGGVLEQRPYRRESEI

TASK-3 = TASK-3 (Homo sapiens, UniProt Q9NPC2); assay: K2P family selectivity, TASK-3; assay type: cell-based
TRESK = TRESK (Homo sapiens, UniProt Q7Z418); assay: K2P family selectivity, TRESK; assay type: cell-based
hERG = hERG (Homo sapiens, UniProt Q12809); assay: Functional hERG inhibition; assay type: cell-based
hERG, sequence (Q12809 whole entry): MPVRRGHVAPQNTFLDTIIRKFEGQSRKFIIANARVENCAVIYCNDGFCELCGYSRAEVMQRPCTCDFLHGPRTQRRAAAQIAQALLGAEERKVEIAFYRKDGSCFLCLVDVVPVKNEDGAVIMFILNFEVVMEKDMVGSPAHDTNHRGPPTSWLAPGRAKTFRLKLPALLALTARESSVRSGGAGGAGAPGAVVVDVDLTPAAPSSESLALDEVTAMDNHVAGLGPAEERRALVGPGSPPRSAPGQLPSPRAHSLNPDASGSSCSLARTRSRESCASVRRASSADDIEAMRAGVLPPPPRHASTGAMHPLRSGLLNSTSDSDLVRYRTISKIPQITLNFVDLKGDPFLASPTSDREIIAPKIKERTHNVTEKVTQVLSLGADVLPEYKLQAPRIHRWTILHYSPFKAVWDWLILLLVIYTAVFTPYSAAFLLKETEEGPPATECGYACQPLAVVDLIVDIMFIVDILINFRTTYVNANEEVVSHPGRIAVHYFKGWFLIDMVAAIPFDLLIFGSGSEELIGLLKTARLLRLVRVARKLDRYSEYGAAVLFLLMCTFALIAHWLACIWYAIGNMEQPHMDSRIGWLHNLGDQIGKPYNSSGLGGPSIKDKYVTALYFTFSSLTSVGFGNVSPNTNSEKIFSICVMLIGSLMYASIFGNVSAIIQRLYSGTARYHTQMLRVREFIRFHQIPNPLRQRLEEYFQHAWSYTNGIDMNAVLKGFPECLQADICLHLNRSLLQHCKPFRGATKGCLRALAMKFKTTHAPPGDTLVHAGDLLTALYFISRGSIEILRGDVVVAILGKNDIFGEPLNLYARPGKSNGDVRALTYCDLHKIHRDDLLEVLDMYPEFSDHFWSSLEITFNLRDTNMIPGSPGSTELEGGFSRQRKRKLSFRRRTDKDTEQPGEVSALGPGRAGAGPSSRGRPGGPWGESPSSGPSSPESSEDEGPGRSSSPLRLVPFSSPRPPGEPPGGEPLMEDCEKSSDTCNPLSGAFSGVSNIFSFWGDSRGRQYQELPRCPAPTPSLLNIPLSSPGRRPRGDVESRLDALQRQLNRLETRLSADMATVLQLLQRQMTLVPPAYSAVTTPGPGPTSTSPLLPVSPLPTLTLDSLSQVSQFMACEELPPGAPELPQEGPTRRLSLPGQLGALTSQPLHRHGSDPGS

in vivo = conditions: rat, po
[4] = Rat 4-day dosing general toxicity study; conditions: at NOAEL doses, rat 4-day study

Compound	IC50 (mouse TREK-1) [nM]	IC50 (human TREK-2) [nM]	fraction unbound at 6 h, 5 µM [1]	IC50 (CYP 1A2) [nM]	IC50 (CYP 3A4) [nM]	AMES [2]	efflux ratio (CACO-2 efflux ratio)	targets with >50% inhibition in Lead Profiling Panel [3]	IC50 (adenosine A3) [nM]	inhibition at 10 µM (adenosine A3) [%]	inhibition at 10 µM (Cav1.2) [%]	inhibition at 10 µM (HCN4) [%]	inhibition at 10 µM (Kir2.1) [%]	inhibition at 10 µM (Kv1.5) [%]	inhibition at 10 µM (Kir2.2) [%]	inhibition at 10 µM (TASK-3) [%]	TRESK inhibition (TRESK)	IC50 (hERG) [nM]	NOAEL at 4 days (in vivo) [mg/kg]	safety margin based on the AUC [4]
CC(=O)N1CCC(n2ncc(Cl)c2C(=O)Nc2ncc(C#Cc3ccccc3)cc2C)CC1 [Compound 10, 1-(1-Acetylpiperidin-4-yl)-4-chloro-N-(3-methyl-5-(phenylethynyl)pyridin-2-yl)-1H-pyrazole-5-carboxamide]	230	81	0.01	23600	10800	Negative	0.7	only two targets displayed >50% inhibition	380	98	≤ 50	≤ 50	≤ 50	≤ 50	51	78	nothing significant	6700	10	more than 10 fold
CC(=O)N1CC[C@@H](n2ncc(Cl)c2C(=O)Nc2ncc(C#Cc3ccc(F)cc3)cc2C)[C@H](F)C1 [Compound 11, 1-((3R,4R)-1-Acetyl-3-fluoropiperidin-4-yl)-4-chloro-N-(5-((4-fluorophenyl)ethynyl)-3-methylpyridin-2-yl)-1H-pyrazole-5-carboxamide]	440	110	0.048	> 30000	10500	Negative	0.91	only two targets displayed >50% inhibition	770	91	≤ 50	≤ 50	≤ 50	≤ 50	≤ 50	–	–	4300	6	more than 10 fold
